Calls of active or inactive are those of the source.
Assays:
[1] = fluconazole-exposed Candida albicans growth modulators – fluorescence, retest, confirmation (AID 2467); assay type: functional, cell-based
[2] = cells
[3] = biological target: Probable nicotinate-nucleotide adenylyltransferase (Staphylococcus aureus (strain N315), UniProt P65502); assay type: functional, Staphylococcus aureus subsp. aureus N315;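 also: confirmatory retest of primary uHTS inhibitor hits against NadD over a range of doses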
Chain of Probable nicotinate-nucleotide adenylyltransferase (P65502 whole entry): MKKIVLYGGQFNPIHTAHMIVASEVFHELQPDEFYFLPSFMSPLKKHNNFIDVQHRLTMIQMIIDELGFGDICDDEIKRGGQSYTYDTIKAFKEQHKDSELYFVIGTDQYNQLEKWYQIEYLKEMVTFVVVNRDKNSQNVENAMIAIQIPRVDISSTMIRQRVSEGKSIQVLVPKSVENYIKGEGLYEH

[4] = biological target: Genome polyprotein (Hepatitis C virus, UniProt Q2Q167); experiment: disruption of hepatitis C core self-association – biochemical, TR-FRET, dose response (AID 2159); parameters: species or system Hepacivirus hominis;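 also: blocks dimerization of HCV core protein measured by TR-FRET between tagged core106 pairs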
Chain of Genome polyprotein (Q2Q167 whole entry): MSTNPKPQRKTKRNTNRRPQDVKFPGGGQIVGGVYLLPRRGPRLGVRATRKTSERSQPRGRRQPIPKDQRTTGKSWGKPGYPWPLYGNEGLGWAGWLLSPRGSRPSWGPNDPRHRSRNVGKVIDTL

[5] = biological target: T1, Tyrosine-protein phosphatase non-receptor type 22 (Homo sapiens, UniProt Q9Y2R2); experiment: inhibition of lymphoid tyrosine phosphatase LYP – biochemical, pCAP fluorogenic substrate, fluorescence, set 3, SAR follow-up (AID 449727); assay type: functional
T1 sequence (Q9Y2R2 whole entry): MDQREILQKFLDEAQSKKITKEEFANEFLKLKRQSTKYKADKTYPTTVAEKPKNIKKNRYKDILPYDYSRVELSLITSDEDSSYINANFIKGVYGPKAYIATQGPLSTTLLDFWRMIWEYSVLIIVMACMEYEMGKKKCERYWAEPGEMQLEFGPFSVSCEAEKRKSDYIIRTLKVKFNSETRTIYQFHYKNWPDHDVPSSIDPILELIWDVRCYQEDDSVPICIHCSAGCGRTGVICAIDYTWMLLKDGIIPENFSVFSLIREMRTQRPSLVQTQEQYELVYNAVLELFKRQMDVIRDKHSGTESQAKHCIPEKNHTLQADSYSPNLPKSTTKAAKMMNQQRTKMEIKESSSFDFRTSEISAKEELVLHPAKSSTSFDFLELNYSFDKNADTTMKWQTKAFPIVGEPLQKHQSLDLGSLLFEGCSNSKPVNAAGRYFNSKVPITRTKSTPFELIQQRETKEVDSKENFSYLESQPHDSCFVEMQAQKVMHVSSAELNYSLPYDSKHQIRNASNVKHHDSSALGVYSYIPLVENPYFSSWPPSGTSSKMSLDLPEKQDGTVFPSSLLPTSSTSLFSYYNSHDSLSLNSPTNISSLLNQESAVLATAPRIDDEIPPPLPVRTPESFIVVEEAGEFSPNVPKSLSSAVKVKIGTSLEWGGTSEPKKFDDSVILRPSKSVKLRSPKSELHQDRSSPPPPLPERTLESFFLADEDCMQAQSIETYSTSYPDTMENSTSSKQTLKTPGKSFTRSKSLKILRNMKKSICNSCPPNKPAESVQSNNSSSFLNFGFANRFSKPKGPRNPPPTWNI

[6] = biological target: T1, Tyrosine-protein phosphatase non-receptor type 22; experiment: SAR LYP1 Fluorescent Assay using OMFP substrate for In Vitro dose response studies - Set 3. [Related pubchem assays (depositor defined):AID1779, AID1784, AID2140, AID2686]; assay type: functional

Compound: CCN1/C(=C/c2ccc3cc(C)ccc3[n+]2CC)Sc2cc(C)c(C)cc21
- EC50 [1]: < 30 nM (active)
- EC50 [2]: 46 nM (active)

Compound: Nc1ccc2nc3c(O)nc(S)nc3nc2c1
- IC50 [3]: 7460 nM (active)
- IC50 [4]: > 49800 nM (not active)

Compound: O=C(O)COc1ccc(/C=N/NC(=O)c2ccc(-c3csc(Nc4ccc(Cl)cc4)n3)cc2)cc1
- IC50 [5]: 369 nM (active)
- IC50 [6]: 626 nM (active)

Source: ChEMBL document CHEMBL1201862, “PubChem BioAssay data set” (2004)
